In brackets after ≈: the same amount, converted by molar mass. Activity calls are given as the source filed them. The rule behind the calls is not given here.
Assays:
[1] = Prodrug conversion in Sprague-Dawley rat plasma assessed as parent nucleoside metabolite formation administered orally or intravenously; assay type: ADME, cell-free; conditions: po
[2] = Stability of compound at pH 6.8 assessed as change in purity at 1 mg/ml incubated for 4 hrs by HPLC analysis; assay type: physicochemical; conditions: buffer, pH 6.8, 4 h
[3] = system: Mammarenavirus choriomeningitidis; assay: In vivo antiviral activity against LCMV infected in C57BL/6-Prf1tm1Sdz/J mouse assessed as improvement in body weight loss at 1 to 5 mg/kg, po qd treated for 7 days; assay type: functional, organism-based; conditions: dose 1-5 mg/kg, time 7.0 day
[4] = Prodrug conversion in C57BL/6J mouse assessed as AUC (0 to t) of 4'-Fluorouridine metabolite at 6 mg/kg, po by LC-MS/MS analysis; assay type: ADME, organism-based; conditions: in vivo
HepG2 = assay: Mitochondrial toxicity in human HepG2 cells cultured in galactose containing medium at 100 uM; assay type: cell-based; conditions: hepg2, 100 µM
[5] = Prodrug conversion in C57BL/6J mouse assessed as AUC (0 to t) of 4'-Fluorouridine metabolite at 20 mg/kg, po by LC-MS/MS analysis; assay type: ADME, organism-based; conditions: in vivo
[6] = Prodrug conversion in C57BL/6J mouse assessed as Cmax of 4'-Fluorouridine metabolite at 20 mg/kg, po by LC-MS/MS analysis; assay type: ADME, organism-based; conditions: in vivo
[7] = system: Mammarenavirus choriomeningitidis; assay: Antiviral activity against LCMV infected in C57BL/6-Prf1tm1Sdz/J mouse assessed as reduction in viral copy number in lung treated orally once daily for 7 days by RT-qPCR analysis; assay type: functional, organism-based; conditions: dose 1-5 mg/kg, route po, time 7.0 day
[8] = Prodrug conversion in Sprague-Dawley rat assessed as 4'-Fluorouridine-NTP metabolite formation in brain at 6 mg/kg, po measured for 0.5 to 24 hrs by LC-MS/MS analysis; assay type: ADME, organism-based; conditions: in vivo, time 0.5-24 hrs
[9] = Prodrug conversion in Beagle dog liver microsomes assessed as parent nucleoside metabolite formation at 1 uM measured up to 60 mins in presence of BNPP/NADPH/UDPGA by LC-MS/MS analysis; assay type: ADME, Canis lupus familiaris, Microsome; conditions: 1 h
[10] = Aqueous solubility of compound; assay type: physicochemical; conditions: aqueous medium
[11] = Prodrug conversion in Sprague-Dawley rat assessed as 4'-Fluorouridine metabolite formation in stomach at 6 mg/kg, po measured for 0.5 to 24 hrs by LC-MS/MS analysis; assay type: ADME, organism-based; conditions: in vivo, time 0.5-24 hrs
[12] = Prodrug conversion in Sprague-Dawley rat assessed as Cmax of 4'-Fluorouridine metabolite at 6 mg/kg, po by LC-MS/MS analysis; assay type: ADME, organism-based; conditions: in vivo
[13] = Prodrug conversion in Sprague-Dawley rat liver microsomes assessed as parent nucleoside metabolite formation at 1 uM measured up to 60 mins in presence of BNPP/NADPH/UDPGA by LC-MS/MS analysis; assay type: ADME, Microsome; conditions: 1 h
[14] = system: Mammarenavirus choriomeningitidis; assay: In vivo antiviral activity against LCMV infected in C57BL/6-Prf1tm1Sdz/J mouse assessed as improvement in lymphocytes percentage at 1 to 5 mg/kg, po qd treated for 7 days; assay type: functional, organism-based; conditions: dose 1-5 mg/kg, time 7.0 day
[15] = Stability of compound at pH 1.5 assessed as change in purity at 1 mg/ml incubated for 12 hrs by HPLC analysis; assay type: physicochemical; conditions: buffer, pH 1.5, 12 h
[16] = Prodrug conversion in Sprague-Dawley rat liver microsomes assessed as parent nucleoside metabolite formation at 1 uM measured up to 60 mins in presence of NADPH/UDPGA by LC-MS/MS analysis; assay type: ADME, Microsome; conditions: 1 h
[17] = Prodrug conversion in Sprague-Dawley rat assessed as 4'-Fluorouridine-NTP metabolite formation in spleen at 6 mg/kg, po measured for 0.5 to 24 hrs by LC-MS/MS analysis; assay type: ADME, organism-based; conditions: in vivo, time 0.5-24 hrs
[18] = Stability of compound at pH 6.8 assessed as change in purity at 1 mg/ml incubated for 12 hrs by HPLC analysis; assay type: physicochemical; conditions: buffer, pH 6.8, 12 h
[19] = Prodrug conversion in Sprague-Dawley rat assessed as Cmax of 4'-Fluorouridine metabolite at 2 mg/kg, po by LC-MS/MS analysis; assay type: ADME, organism-based; conditions: in vivo
[20] = Prodrug conversion in Beagle dog assessed as Cmax of 4'-Fluorouridine metabolite at 3 mg/kg/day, po treated for 7 days by LC-MS/MS analysis; assay type: ADME, organism-based, Canis lupus familiaris; conditions: in vivo, 168 h, time 7 day
[21] = system: Mammarenavirus choriomeningitidis; assay: In vivo antiviral activity against LCMV infected in C57BL/6-Prf1tm1Sdz/J mouse assessed as improvement in splenic tissue lesion at 1 to 5 mg/kg, po qd for 7 days; assay type: functional, organism-based; conditions: dose 1-5 mg/kg, time 7.0 day
[22] = Prodrug conversion in Sprague-Dawley rat assessed as AUC (0 to t) of 4'-Fluorouridine metabolite at 20 mg/kg, po by LC-MS/MS analysis; assay type: ADME, organism-based; conditions: in vivo
[23] = Prodrug conversion in Beagle dog assessed as Cmax of 4'-Fluorouridine metabolite at 3 mg/kg, po by LC-MS/MS analysis; assay type: ADME, organism-based, Canis lupus familiaris; conditions: in vivo
[24] = Prodrug conversion in Sprague-Dawley rat assessed as AUC (0 to t) of 4'-Fluorouridine metabolite at 6 mg/kg, po by LC-MS/MS analysis; assay type: ADME, organism-based; conditions: in vivo
[25] = system: Mammarenavirus choriomeningitidis; assay: Antiviral activity against LCMV infected in C57BL/6-Prf1tm1Sdz/J mouse assessed as reduction in viral titer in kidney treated orally once daily for 7 days by RT-qPCR analysis; assay type: functional, organism-based; conditions: dose 1-5 mg/kg, route po, time 7.0 day
[26] = Cmax in fasted Sprague-Dawley rat at 23 mg/kg, po by LC-MS/MS analysis; assay type: ADME, organism-based; conditions: in vivo
[27] = Stability of compound at pH 4.0 assessed as change in purity at 1 mg/ml incubated for 4 hrs by HPLC analysis; assay type: physicochemical; conditions: buffer, pH 4, 4 h
[28] = system: Mammarenavirus choriomeningitidis; assay: Antiviral activity against LCMV infected in C57BL/6-Prf1tm1Sdz/J mouse assessed as reduction in viral titer in lung treated orally once daily for 7 days by RT-qPCR analysis; assay type: functional, organism-based; conditions: dose 1-5 mg/kg, route po, time 7.0 day
[29] = Prodrug conversion in C57BL/6J mouse plasma assessed as parent nucleoside metabolite formation at 1 uM measured up to 60 mins by LC-MS/MS analysis; assay type: ADME, cell-free; conditions: 1 h
[30] = Prodrug conversion in Sprague-Dawley rat assessed as 4'-Fluorouridine-NTP metabolite formation in lung at 6 mg/kg, po measured for 0.5 to 24 hrs by LC-MS/MS analysis; assay type: ADME, organism-based; conditions: in vivo, time 0.5-24 hrs
[31] = Stability in C57BL/6J mouse plasma administered orally or intravenously; assay type: ADME, cell-free; conditions: po
[32] = Prodrug conversion in Sprague-Dawley rat assessed as AUC (0 to t) of 4'-Fluorouridine metabolite at 2 mg/kg, po by LC-MS/MS analysis; assay type: ADME, organism-based; conditions: in vivo
[33] = Stability in SGF assessed as compound degradation measured for 24 hrs by HPLC analysis; assay type: physicochemical; conditions: simulated gastric fluid (SGF), read-out: Drug degradation
[34] = Prodrug conversion in Beagle dog assessed as Cmax of 4'-Fluorouridine metabolite at 1 mg/kg, po by LC-MS/MS analysis; assay type: ADME, organism-based, Canis lupus familiaris; conditions: in vivo
[35] = Stability in Sprague-Dawley rat plasma administered orally or intravenously; assay type: ADME, cell-free; conditions: po
[36] = Prodrug conversion in Sprague-Dawley rat assessed as AUC (0 to t) of 4'-Fluorouridine metabolite at 6 mg/kg/day, po treated for 7 days by LC-MS/MS analysis; assay type: ADME, organism-based; conditions: in vivo, 168 h, time 7 day

CC(C)C(=O)OC[C@@]1(F)O[C@@H](n2ccc(=O)n(COC(=O)c3cccnc3)c2=O)[C@H](OC(=O)C(C)C)[C@@H]1OC(=O)C(C)C
Drug metabolism [1]: metabolite_detected | Activity [2]: -0.1% | Activity [3]: Active | AUCt [4]: 1729 ng·h/mL | Activity (HepG2): Non-toxic | AUCt [5]: 7586 ng·h/mL | Cmax [6]: 788 ng/mL | Activity [7]: Dose-dependent-effect | Drug metabolism [8]: metabolite_detected | Drug metabolism [9]: metabolite_notdetected | solubility [10]: 10 µg/mL (≈ 16.5 µM) | Drug metabolism [11]: metabolite_detected | Cmax [12]: 329 ng/mL | Drug metabolism [13]: metabolite_notdetected | Activity [14]: Active | Activity [15]: -4.2% | Drug metabolism [16]: metabolite_detected | Drug metabolism [17]: metabolite_detected | Activity [18]: -0.3% | Cmax [19]: 119 ng/mL | Cmax [20]: 411 ng/mL | Activity [21]: Active | AUCt [22]: 11325 ng·h/mL | Cmax [23]: 495 ng/mL | AUCt [24]: 3023 ng·h/mL | Activity [25]: Dose-dependent-effect | Cmax [26]: 1230 ng/mL | Activity [27]: 0% | Activity [28]: Dose-dependent-effect | Drug metabolism [29]: metabolite_detected | Drug metabolism [30]: metabolite_detected | Stability [31]: Unstable | AUCt [32]: 962 ng·h/mL | degraded at 24 h [33]: < 5% | Cmax [34]: 139 ng/mL | Stability [35]: Unstable | AUCt [36]: 4084 ng·h/mL
